Experimental data: US10670605B2, “Cysteine reactive probes and uses thereof” (The Scripps Research Institute, priority 2015, dated 2020)
Blank lines part the entries; values can stand above or below the molecule they belong to.

How the values were obtained:
Assay in all cases: Competitive isoTOP-ABPP, cell lysates
Assay type in all cases: binding
CASP8 C360 (Q14790) = CASP8 C360 (Q14790) (Homo sapiens, UniProt Q14790); conditions: for isoTOP-ABPP reactivity ratio, Q14790_C360: 500 μm
MGMT C145 (P16455) = biological target: T1, MGMT C145 (P16455) (Homo sapiens, UniProt P16455); conditions: for isoTOP-ABPP ratio (reactivity profile), P16455_C145: 500 μm in-vitro ramos; for isoTOP-ABPP reactivity ratio, P16455_C145 / isoTOP-ABPP reactivity profile ratio, P16455_C145: 500 μm
T1 sequence (P16455 1-207): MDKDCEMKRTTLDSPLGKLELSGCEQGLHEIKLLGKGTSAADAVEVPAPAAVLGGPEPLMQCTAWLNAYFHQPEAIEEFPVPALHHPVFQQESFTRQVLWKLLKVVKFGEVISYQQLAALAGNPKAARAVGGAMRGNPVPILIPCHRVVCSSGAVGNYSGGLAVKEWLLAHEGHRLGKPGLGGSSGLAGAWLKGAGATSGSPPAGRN

KDM4B C694 (O94953) = biological target: T2, KDM4B C694 (O94953) (Homo sapiens, UniProt O94953); conditions: for isoTOP-ABPP reactivity ratio, O94953_C694 / isoTOP-ABPP reactivity profile ratio, O94953_C694: 500 μm
T2 sequence (O94953 1-1096): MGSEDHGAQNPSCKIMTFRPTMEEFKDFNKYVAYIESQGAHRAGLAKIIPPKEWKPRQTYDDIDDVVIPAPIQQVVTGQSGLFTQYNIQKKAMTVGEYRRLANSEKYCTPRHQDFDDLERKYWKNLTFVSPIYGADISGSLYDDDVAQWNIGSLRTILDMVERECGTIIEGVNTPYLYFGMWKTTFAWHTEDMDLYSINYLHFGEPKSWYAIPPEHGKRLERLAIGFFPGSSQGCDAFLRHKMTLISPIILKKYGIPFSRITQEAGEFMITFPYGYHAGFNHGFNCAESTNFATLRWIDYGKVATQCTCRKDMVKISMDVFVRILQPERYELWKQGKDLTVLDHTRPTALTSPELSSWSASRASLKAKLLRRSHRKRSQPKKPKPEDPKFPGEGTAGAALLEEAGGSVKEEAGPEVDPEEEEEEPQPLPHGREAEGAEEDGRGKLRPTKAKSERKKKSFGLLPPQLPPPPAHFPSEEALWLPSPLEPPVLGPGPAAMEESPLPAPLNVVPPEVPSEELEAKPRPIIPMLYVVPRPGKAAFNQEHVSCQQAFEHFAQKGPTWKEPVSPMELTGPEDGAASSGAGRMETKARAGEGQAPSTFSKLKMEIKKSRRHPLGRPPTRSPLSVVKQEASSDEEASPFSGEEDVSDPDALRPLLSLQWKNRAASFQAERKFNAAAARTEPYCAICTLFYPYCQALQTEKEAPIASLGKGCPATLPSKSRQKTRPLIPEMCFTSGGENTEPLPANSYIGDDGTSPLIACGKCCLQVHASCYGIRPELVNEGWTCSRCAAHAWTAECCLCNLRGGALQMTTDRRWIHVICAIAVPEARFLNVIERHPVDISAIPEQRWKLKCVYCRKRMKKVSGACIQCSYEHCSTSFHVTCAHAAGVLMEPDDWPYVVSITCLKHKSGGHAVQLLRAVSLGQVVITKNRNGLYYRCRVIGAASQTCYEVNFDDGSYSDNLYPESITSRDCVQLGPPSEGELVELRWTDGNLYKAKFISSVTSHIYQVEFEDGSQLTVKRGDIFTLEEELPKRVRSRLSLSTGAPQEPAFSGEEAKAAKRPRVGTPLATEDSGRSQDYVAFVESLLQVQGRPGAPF

Chain of CASP8 C360 (Q14790) (Q14790 whole entry): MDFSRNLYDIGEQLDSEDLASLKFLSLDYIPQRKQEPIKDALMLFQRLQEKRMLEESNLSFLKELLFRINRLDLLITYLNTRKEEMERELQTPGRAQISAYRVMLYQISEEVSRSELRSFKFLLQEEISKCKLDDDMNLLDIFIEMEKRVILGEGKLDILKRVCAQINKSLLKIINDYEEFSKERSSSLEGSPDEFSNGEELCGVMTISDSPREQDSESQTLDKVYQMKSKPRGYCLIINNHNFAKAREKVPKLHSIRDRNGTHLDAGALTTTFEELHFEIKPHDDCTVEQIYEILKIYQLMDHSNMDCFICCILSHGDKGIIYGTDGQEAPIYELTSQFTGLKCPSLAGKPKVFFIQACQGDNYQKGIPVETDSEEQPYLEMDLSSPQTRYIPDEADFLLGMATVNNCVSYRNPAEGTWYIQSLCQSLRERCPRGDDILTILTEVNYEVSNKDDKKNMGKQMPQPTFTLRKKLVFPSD

Structure (SMILES): COc1ccccc1OCCNC(=O)CCl [compound 28]
isoTOP-ABPP ratio (reactivity profile), Q14790_C360 (CASP8 C360 (Q14790); 500 μm in-vitro ramos_231): 1.1
isoTOP-ABPP ratio (reactivity profile), P16455_C145 (MGMT C145 (P16455)): 20.0

Structure (SMILES): O=C(CCl)N1CCN(CC(=O)N2CCOCC2)CC1 [compound 29]
isoTOP-ABPP ratio (reactivity profile), P16455_C145 (MGMT C145 (P16455)): 20.0
isoTOP-ABPP ratio (reactivity profile), O94953_C694 (KDM4B C694 (O94953); 500 μm in-vitro ramos_231): 1.2

Structure (SMILES): CCN(CC)c1ccc(S(N)(=O)=O)cc1NC(=O)CCl [compound 30]
isoTOP-ABPP ratio (reactivity profile), Q14790_C360 (CASP8 C360 (Q14790); 500 μm in-vitro ramos): 2.0
isoTOP-ABPP reactivity ratio, Q14790_C360 (CASP8 C360 (Q14790); in-vitro_ramos): 5.2

Structure (SMILES): C=CC(=O)N(Cc1cccnc1)c1cc(C(F)(F)F)cc(C(F)(F)F)c1 [compound 31]
isoTOP-ABPP reactivity ratio, P16455_C145 (MGMT C145 (P16455); in-vitro_ramos): 1.0

Structure (SMILES): CC(C)(C)c1cc(NC(=O)CCl)on1 [compound 32]
isoTOP-ABPP reactivity ratio, P16455_C145 (MGMT C145 (P16455); in-vitro_ramos): 20.0

Structure (SMILES): O=C(CCl)Nc1ccccc1C1CCCCCC1 [compound 35]
isoTOP-ABPP reactivity ratio, Q14790_C360 (CASP8 C360 (Q14790); in-vitro_ramos): 1.3
isoTOP-ABPP reactivity ratio, O94953_C694 (KDM4B C694 (O94953); in-vitro_ramos): 1.1

The next lines start with the values.

isoTOP-ABPP reactivity ratio, Q14790_C360 (CASP8 C360 (Q14790); in-vitro_ramos): 1.0
isoTOP-ABPP reactivity ratio, O94953_C694 (KDM4B C694 (O94953); in-vitro_ramos): 1.1
Structure (SMILES): C=CC(=O)N1CCC(c2noc3ccc(F)cc23)CC1 [compound 37]

isoTOP-ABPP reactivity ratio, Q14790_C360 (CASP8 C360 (Q14790); in-vitro_ramos): 4.1
isoTOP-ABPP reactivity ratio, Q14790_C360 (CASP8 C360 (Q14790); in-vitro_ramos_231): 1.0
isoTOP-ABPP reactivity ratio, O94953_C694 (KDM4B C694 (O94953); in-vitro_ramos): 2.4
Structure (SMILES): C=CC(=O)Nc1cc(F)c(N2CCN(C(=O)OC(C)(C)C)CC2)c(F)c1 [compound 38]

isoTOP-ABPP reactivity ratio, P16455_C145 (MGMT C145 (P16455); in-vitro_ramos): 1.0
Structure (SMILES): C=CC(=O)Nc1cc(C)c(Br)cc1C [compound 40]

isoTOP-ABPP reactivity ratio, Q14790_C360 (CASP8 C360 (Q14790); in-vitro_ramos): 0.8
isoTOP-ABPP reactivity ratio, Q14790_C360 (CASP8 C360 (Q14790); in-vitro_ramos_231): 1.0
isoTOP-ABPP reactivity ratio, P16455_C145 (MGMT C145 (P16455); in-vitro_ramos_231): 1.9
Structure (SMILES): Cc1ccc(C=C(C#N)C(=O)NCCN2CCOCC2)cc1 [compound 41]

isoTOP-ABPP reactivity profile ratio, P16455_C145 (MGMT C145 (P16455); in-vitro_ramos): 0.9
isoTOP-ABPP reactivity profile ratio, O94953_C694 (KDM4B C694 (O94953); in-vitro_ramos): 0.9
Structure (SMILES): N#CC(=Cc1ccc(-c2ccccc2Cl)o1)C(N)=O [compound 42]

isoTOP-ABPP reactivity profile ratio, O94953_C694 (KDM4B C694 (O94953); in-vitro_ramos_231): 20.0
Structure (SMILES): COc1cc(NC(=O)CCl)cc(OC)c1 [compound 43]

isoTOP-ABPP reactivity profile ratio, P16455_C145 (MGMT C145 (P16455); in-vitro_ramos): 20.0
isoTOP-ABPP reactivity profile ratio, O94953_C694 (KDM4B C694 (O94953); in-vitro_ramos): 1.4
Structure (SMILES): O=C(CCl)Nc1cccc2ncccc12 [compound 51]

isoTOP-ABPP reactivity profile ratio, O94953_C694 (KDM4B C694 (O94953); in-vitro_ramos): 1.4
Structure (SMILES): O=C(CCl)Nc1ccc(-c2ccccc2)cc1 [compound 52]

isoTOP-ABPP reactivity profile ratio, P16455_C145 (MGMT C145 (P16455); in-vitro_ramos): 1.0
Structure (SMILES): C=CC(=O)N1CCC(Cc2ccccc2)CC1 [compound 53]
